Assay results from PubChem BioAssay (NCI).
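Exposure lasted 48 hours, with cells grown in 96-well plates and compounds tested at five concentrations. GI50 is the concentration that inhibits growth by half. The concentration for full growth arrest is given as TGI.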

Key:
Experiment in all cases: growth of human tumour cells (NCI), 48 h
786-0 renal = test system: 786-0 renal
HCT-15 colon = test system: HCT-15 colon
HL-60(TB) leukemia = test system: HL-60(TB) leukemia
KM12 colon = test system: KM12 colon
NCI-H23 lung = test system: NCI-H23 lung
OVCAR-4 ovarian = test system: OVCAR-4 ovarian
SNB-19 CNS = test system: SNB-19 CNS
HS 578T breast = test system: HS 578T breast
MDA-MB-231 breast = test system: MDA-MB-231 breast
NCI/ADR-RES ovarian = test system: NCI/ADR-RES ovarian

Row | SMILES | TGI (786-0 renal) [µM] | TGI (HCT-15 colon) [µM] | TGI (HL-60(TB) leukemia) [µM] | TGI (KM12 colon) [µM] | TGI (NCI-H23 lung) [µM] | TGI (OVCAR-4 ovarian) [µM] | TGI (SNB-19 CNS) [µM] | TGI (HS 578T breast) [µM] | TGI (MDA-MB-231 breast) [µM] | TGI (NCI/ADR-RES ovarian) [µM] | GI50 (HCT-15 colon) [µM] | GI50 (HL-60(TB) leukemia) [µM] | GI50 (786-0 renal) [µM] | GI50 (HS 578T breast) [µM] | GI50 (KM12 colon) [µM] | GI50 (MDA-MB-231 breast) [µM] | GI50 (NCI/ADR-RES ovarian) [µM] | GI50 (OVCAR-4 ovarian) [µM] | GI50 (SNB-19 CNS) [µM]
1 | CCOC(=O)CC(=O)ON(C)C(C)=O | > 100 | > 100 | > 100 | > 100 | > 100 | > 100 | > 100 |  |  |  |  |  |  |  |  |  |  |  | 
2 | COc1cc(C2c3cc4c(cc3OC(C)(O)C2C)OCO4)cc(OC)c1OC (stereo not given) | > 100 | > 100 | 0.53 | 57.6 | > 100 |  | > 100 | > 100 | 24 | > 100 |  |  |  |  |  |  |  |  | 
3 | CC(C)OP(=O)(OC(C)C)C(=NCCN=C(NNc1ccc([N+](=O)[O-])cc1)P(=O)(OC(C)C)OC(C)C)NNc1ccc([N+](=O)[O-])cc1 | > 100 | > 100 | > 100 | > 100 | 5.23 | > 100 | > 100 |  |  |  |  |  |  |  |  |  |  |  | 
4 | O=C(/C=C\c1ccc(Cl)c(Cl)c1)c1ccc(Cl)cc1Cl | 39.6 | > 100 | 23.3 | 25.2 | 14.1 | 88.7 | 56.2 |  |  |  | 58 | 3.46 |  |  |  |  |  |  | 
5 | CC(=O)OC1COC(n2ccc3cc(Br)c([N+](=O)[O-])cc32)C(OC(C)=O)C1OC(C)=O (stereo not given) | 97.9 | > 100 |  | > 100 | 61.3 |  | > 100 |  |  |  |  |  |  |  |  |  |  |  | 
6 | CN(C)c1ccc(/C=C(\NC(=O)c2ccccc2)c2nc3ncncc3[nH]2)cc1 | > 100 | > 100 | > 100 | > 100 | > 100 | > 100 | > 100 |  |  |  |  |  |  |  |  |  |  |  | 
7 | COc1cc2c3c(n(C)c(=O)c2cc1OC)-c1cc2c(cc1/C3=C\CCN)OCO2 | 6.21 | 12.8 | 1.52 | 2.11 |  | 6.54 | 16.3 |  | 4.78 | 2.56 | 0.679 | 0.236 | 0.132 | 2.01 | 0.426 | 1.36 | 0.272 | 0.792 | 0.394
8 | C#CC1(O)CCC2C3CCc4cc(Oc5nc(F)nc(-c6c7ccccc7c7sc8ccccc8n67)n5)ccc4C3CC[C@@]21C (stereo not given in full) | > 100 | > 100 | > 100 | > 100 | > 100 | > 100 | > 100 |  |  |  |  |  |  |  |  |  |  |  | 
9 | CCc1cc(Cc2cc(CC)c(NC(=O)C(=O)Cc3ccccn3)c(CC)c2Cl)c(Cl)c(CC)c1NC(=O)C(=O)Cc1ccccn1 | > 100 | > 100 | > 100 | > 100 | > 100 | > 100 | > 100 |  |  |  |  |  |  |  |  |  |  |  | 
10 | Cc1cccc(NC(=O)Cn2cnc3sc(C(=O)OC(C)C)c(C)c3c2=O)c1 | > 50 | > 50 | > 50 | > 50 |  |  | 38.6 | > 50 | 39.5 |  | 32.6 | > 50 | 32.9 | 16.5 | 30.3 | 11.2 |  |  | 14.1
11 | c1ccc(COc2cccc3ccc[n+](Cc4ccccc4)c23)cc1 | 84.6 | > 100 | 5.75 | 15.7 | 23.9 | 45.7 | > 100 |  |  |  |  |  |  |  |  |  |  |  | 
12 | CCCCCCCCC/C=C1\CCC(CN2CCOCC2)C1=O (stereo not given) | 9.69 | 7.05 | 4.38 | 5.2 | 9.18 | 12 | 23.5 | 5.47 | 11.2 |  |  |  |  |  |  |  |  |  | 
